Experimental data reported in the Bradley open melting point set (2014).
Counter-ions that a name gives are not always drawn.

Compared with `N#Cc1cccc(C(F)(F)F)c1` [3-(trifluoromethyl)benzonitrile], `O=C(O)Cc1cccc(C(F)(F)F)c1` [3-(trifluoromethyl)phenylacetic acid] is higher in melting point: 16 °C for the first, 78 °C for the second.

Compared with `Nc1cccc(O)c1` [3-Aminophenol], `Nc1cccc(I)c1` [3-iodoaniline] is lower in melting point: 125 °C for the first, 23 °C for the second.

First: CC(=O)C=Cc1ccc([N+](=O)[O-])o1 [3-Buten-2-one, 4- (5-nitro-2-furanyl)-]
Second: Cc1cccc([N+](=O)[O-])c1 [3-nitrotoluene]
The melting point of the first is higher: 194 °C for the first, 16 °C for the second.

Going from `C=CCCl` [3-Chloroprop-1-ene] to `C=CCI` [3-iodo-1-propene], the melting point rises from -134 °C to -99 °C.

Compared with `CC12CCC3C(CCC4CC(O)CCC43C)C1CCC2=O` (stereo not drawn) [3-Hydroxyandrostan-17-one], `CCC1(O)CCC2(C)C(CCC3C4CCC(=O)C4(C)CCC32)C1` (stereo not drawn) [3-ethyl-3-hydroxyandrostan-17-one] is lower in melting point: 174 °C for the first, 115 °C for the second.

First: COc1cccc(C(=O)O)c1 [3-Methoxybenzoic acid]
Second: Cc1cccc(C(=O)O)c1 [3-Methylbenzoic acid]
The melting point of the first is lower: 106 °C for the first, 112 °C for the second.

Going from `CC(=O)OCCC(C)C` [3-Methylbutyl acetate] to `CCCCC(C)CC` (stereo not drawn) [3-methylheptane], the melting point falls from -100 °C to -121 °C.

First: O=C(O)CC[N+](=O)[O-] [3-Nitropropanoic acid]
Second: O=C(O)CCS [3-mercaptopropionic acid]
The melting point of the first is higher: 64 °C for the first, 18 °C for the second.

First: CC(C)CCCC(C)C1CCC2C3CC=C4CC(OCOc5ccc(Cl)cc5)CCC4(C)C3CCC12C (stereo not drawn) [3-[(4-chlorophenoxy)methoxy]cholest-5-ene]
Second: CC(C)CCCC(C)C1CCC2C3CC=C4CC(Cl)CCC4(C)C3CCC12C (stereo not drawn) [3-chlorocholest-5-ene]
The melting point of the first is higher: 145 °C for the first, 93 °C for the second.

First: O=C1C=C(/C=C/c2ccccc2)CCC1 [3-[(E)-2-phenylethenyl]cyclohex-2-en-1-one]
Second: O=c1cc(-c2ccccc2)[nH]o1 [3-phenyl-5-isoxazolone]
The melting point of the first is lower: 66 °C for the first, 152 °C for the second.

Compared with `N#CC(=CN(O)c1ccccc1)c1ccccc1` [3-[hydroxy(phenyl)amino]-2-phenylprop-2-enenitrile], `O=C(OC1OC(=O)c2ccccc21)c1ccccc1` (stereo not drawn) [3-oxo-1,3-dihydro-2-benzofuran-1-yl benzoate] is lower in melting point: 155 °C for the first, 128 °C for the second.

Compared with `CC(=O)Oc1cccc(C(=O)O)c1C` [3-acetoxy-2-methylbenzoic acid], `CC(=O)Oc1cccc(C(C)=O)c1` [3-acetoxy_acetophenone] is lower in melting point: 150 °C for the first, 44 °C for the second.

Going from `CC(=O)OC1(C(C)=O)CCC2(C)C(CCC3C4CCCC4(C)CCC32)C1` (stereo not drawn) [3-acetylandrostan-3-yl acetate] to `CC12CCC(=O)CC1CCC1C2CCC2(C)C(OC=O)CCC12` (stereo not drawn) [3-oxoandrostan-17-yl formate], the melting point falls from 165 °C to 125 °C.

Compared with `Nc1nc[nH]n1` [3-amino-1,2,4-triazole], `Cc1cc(N)n[nH]1` [3-amino-5-methyl-1h-pyrazole] is lower in melting point: 151 °C for the first, 45 °C for the second.

Compared with `Nc1cccnc1[N+](=O)[O-]` [3-amino-2-nitropyridine], `O=[N+]([O-])c1ncccc1Br` [3-bromo-2-nitropyridine] is lower in melting point: 192 °C for the first, 104 °C for the second.

Compared with `Nc1cc(C(=O)O)ccc1Cl` [3-amino-4-chlorobenzoic acid], `Cc1ccc(C(=O)O)cc1Cl` [3-chloro-4-methylbenzoic acid] is lower in melting point: 216 °C for the first, 199 °C for the second.

Compared with `Nc1cc(C(=O)O)cc(C(F)(F)F)c1` [3-amino-5-(trifluoromethyl)benzoic acid], `O=C(O)c1cc(F)cc(C(F)(F)F)c1` [3-fluoro-5-(trifluoromethyl)benzoic acid] is lower in melting point: 144 °C for the first, 104 °C for the second.

First: CSc1[nH]nc(N)c1C#N [3-amino-5-methylthio-1h-pyrazole-4-carbonitrile]
Second: CC(C)(C)c1cc(N)n[nH]1 [3-amino-5-tert-butyl-1h-pyrazole]
The melting point of the first is higher: 149 °C for the first, 77 °C for the second.

First: Nc1cc2ccccc2oc1=O [3-aminocoumarin]
Second: CCCC(=O)c1cc2ccccc2oc1=O [3-butyrylcoumarin]
The melting point of the first is higher: 136 °C for the first, 94 °C for the second.

Compared with `NC(=O)c1sccc1N` [3-aminothiophene-2-carboxamide], `NC(=O)c1ccc(F)c(Cl)c1` [3-chloro-4-fluorobenzamide] is higher in melting point: 121 °C for the first, 146 °C for the second.

First: OB(O)c1cccc(OCc2ccccc2)c1 [3-benzyloxybenzeneboronic acid]
Second: CCOc1cccc(B(O)O)c1 [3-ethoxybenzeneboronic acid]
The melting point of the first is lower: 123 °C for the first, 144 °C for the second.

Compared with `COc1ccc(Br)c(OC)c1C(=O)O` [3-bromo-2,6-dimethoxybenzoic acid], `COc1ccc(B(O)O)cc1F` [3-fluoro-4-methoxybenzeneboronic acid] is higher in melting point: 146 °C for the first, 238 °C for the second.

Going from `Cc1ccc(N)cc1Br` [3-bromo-4-methylaniline] to `Cc1ccc(N)cc1F` [3-fluoro-4-methylaniline], the melting point rises from 27 °C to 33 °C.

Compared with `O=[N+]([O-])c1cc[n+]([O-])cc1Br` [3-bromo-4-nitropyridine n-oxide], `Cc1ccc[n+]([O-])c1` [3-picoline n-oxide] is lower in melting point: 153 °C for the first, 38 °C for the second.

Going from `O=C(O)c1cccc(Br)c1` [3-bromobenzoic acid] to `O=C(O)c1cccc(Cl)c1` [3-chlorobenzoic acid], the melting point rises from 156 °C to 157 °C.

First: N#CCc1cccc(Br)c1 [3-bromophenylacetonitrile]
Second: N#Cc1cccc(O)c1 [3-hydroxybenzonitrile]
The melting point of the first is lower: 27 °C for the first, 80 °C for the second.

Going from `O=C(O)c1cc(B(O)O)ccc1F` [3-carboxy-4-fluorobenzeneboronic acid] to `O=Cc1ccc(B(O)O)cc1F` [3-fluoro-4-formylbenzeneboronic acid], the melting point rises from 218 °C to 240 °C.

Going from `O=C(O)c1cccc(Cl)c1[N+](=O)[O-]` [3-chloro-2-nitrobenzoic acid] to `O=C(O)c1cccc([N+](=O)[O-])c1C(=O)O` [3-nitrophthalic acid], the melting point falls from 237 °C to 212 °C.

First: Nc1ccc(F)c(Cl)c1 [3-chloro-4-fluoroaniline]
Second: Nc1cccc([N+](=O)[O-])c1 [3-nitroaniline]
The melting point of the first is lower: 46 °C for the first, 113 °C for the second.

Going from `O=Cc1ccc(B(O)O)cc1Cl` [3-chloro-4-formylbenzeneboronic acid] to `COc1cc(B(O)O)ccc1C` [3-methoxy-4-methylbenzeneboronic acid], the melting point falls from 212 °C to 193 °C.

Compared with `N#CCCCl` [3-chloropropionitrile], `N#CCC(=O)c1cccs1` [3-oxo-3-(2-thienyl)propionitrile] is higher in melting point: -50 °C for the first, 134 °C for the second.

First: N#Cc1cccc(C(=O)O)c1 [3-cyanobenzoic_acid]
Second: O=C(O)c1cccc(I)c1 [3-iodobenzoic acid]
The melting point of the first is higher: 223 °C for the first, 187 °C for the second.

First: N#Cc1cccnc1 [3-cyanopyridine]
Second: Cc1cccnc1 [3-picoline]
The melting point of the first is higher: 50 °C for the first, -18 °C for the second.

First: O=C(O)C1CC=CCC1 (stereo not drawn) [3-cyclohexene-1-carboxylic acid]
Second: O=S1(=O)CC=CC1 [3-sulfolene]
The melting point of the first is lower: 17 °C for the first, 65 °C for the second.

Going from `CCc1cccc(C)c1` [3-ethyltoluene] to `Cc1cccc(I)c1` [3-iodotoluene], the melting point rises from -96 °C to -27 °C.

First: Cc1ccc(C(=O)O)cc1F [3-fluoro-4-methylbenzoic acid]
Second: O=C(O)c1ccc([N+](=O)[O-])c(O)c1 [3-hydroxy-4-nitrobenzoic acid]
The melting point of the first is lower: 170 °C for the first, 234 °C for the second.

Compared with `CCCC(=O)CC` [3-hexanone], `CCCCCCCC(C)CC` (stereo not drawn) [3-methyldecane] is lower in melting point: -55 °C for the first, -76 °C for the second.

First: COc1ccc2oc(-c3cc(OC)c(OC)cc3OC)c(O)c(=O)c2c1 [3-hydroxy-2',4',5',6-tetramethoxyflavone]
Second: COc1cccc2oc(-c3ccccc3)c(O)c(=O)c12 [3-hydroxy-5-methoxyflavone]
The melting point of the first is higher: 202 °C for the first, 175 °C for the second.

Compared with `O=C1OC(c2ccccc2)(c2ccccc2)C=C1O` [3-hydroxy-5,5-diphenylfuran-2(5H)-one], `CC1c2ccccc2C(=O)C1c1ccccc1` (stereo not drawn) [3-methyl-2-phenyl-2,3-dihydro-1H-inden-1-one] is lower in melting point: 127 °C for the first, 85 °C for the second.

First: COc1ccc2c(c1)C(O)OC2=O (stereo not drawn) [3-hydroxy-5-methoxy-2-benzofuran-1(3H)-one]
Second: COc1ccc2c(c1)CC2=O [3-methoxybicyclo[4.2.0]octa-1,3,5-trien-7-one]
The melting point of the first is higher: 137 °C for the first, 52 °C for the second.

Compared with `CC(O)CC(=O)O` (stereo not drawn) [3-hydroxybutyric acid], `O=C(O)Cc1cccc(I)c1` [3-iodophenylacetic acid] is higher in melting point: 38 °C for the first, 130 °C for the second.

First: CC1=CC(=O)CC1 [3-methyl-2-cyclopenten-1-one]
Second: Cc1ccc[nH]c1=O [3-methyl-2-pyridone]
The melting point of the first is lower: 2 °C for the first, 140 °C for the second.

Compared with `Cc1ccc2cc3c(ccc4ccccc43)c3c2c1CC3` [3-methylcholanthrene], `Cc1c[nH]c2ccccc12` [3-methylindole] is lower in melting point: 180 °C for the first, 96 °C for the second.

Compared with `Cc1cc2ccccc2[n+]([O-])c1` [3-methylquinoline n-oxide], `O=[N+]([O-])c1cccc(-c2ccccc2)c1` [3-nitrobiphenyl] is lower in melting point: 89 °C for the first, 62 °C for the second.

First: CCCC1=NNC(=O)C1 [3-n-propyl-2-pyrazolin-5-one]
Second: O=C(O)CCc1ccccc1 [3-phenylpropanoic_acid]
The melting point of the first is higher: 208 °C for the first, 49 °C for the second.

Going from `O=[N+]([O-])c1cccc(CO)c1` [3-nitrobenzyl alcohol] to `O=[N+]([O-])c1cccc(CCl)c1` [3-nitrobenzyl_chloride], the melting point rises from 31 °C to 47 °C.

Going from `O=C(O)Cc1cccc([N+](=O)[O-])c1` [3-nitrophenylacetic acid] to `O=C(O)CCc1ccccc1` [3-phenylpropionic acid], the melting point falls from 119 °C to 48.5 °C.

Compared with `O=C(O)CCN1C(=O)c2ccccc2C1=O` [3-phthalimidopropionic acid], `COc1ccccc1-c1ccc(C=C(C(C)=O)C(C)=O)o1` [3-{[5-(2-Methoxyphenyl)-2-furyl]methylene}pentane-2,4-dione] is lower in melting point: 152 °C for the first, 146 °C for the second.

First: O=C(O)COc1cccnc1 [3-pyridyloxyacetic acid]
Second: CC(C)(C)c1cccc(O)c1 [3-tert-butylphenol]
The melting point of the first is higher: 211 °C for the first, 45 °C for the second.
